These are literature values, as cited in patent US10172902B2, “Ocular eyelid scrub composition for the treatment of demodex blepharitis” (LUNOVUS, LLC, priority 2014, dated 2019).

This data set deals with ocular Demodex. As to conditions: solutions, suspensions, sprays, lotions, gels, pastes, cleansers, creams or ointments.

Structures are written as SMILES.

Consider `CC1=CCC(O)(C(C)C)CC1` (stereo not shown) [terpinen-4-ol], for which the “treating an ocular Demodex infestation or Demodex-induced blepharitis” value was “effective”.
